# Measurements reported in US9890185B2, “Urea derivatives useful as kinase inhibitors” (Respivert Limited, priority 2013, dated 2018).
# Columns and labels:
# PBMCs [1] = experiment: IL-2 release in CD3/CD28 stimulated PBMC cells (assay c); assay type: cell-based; settings: Homo sapiens, read-out: IC50 Values for Inhibition of Cytokine Release, PBMCs IL-2
# Method: (§1) PBMCs from healthy subjects are separated from whole blood using a density gradient (Lymphoprep, Axis-Shield Healthcare). Cells are added to a 96 well plate pre-coated with a mixture of CD3/CD28 monoclonal antibodies (0.3 μg/mL eBioscience and 3 μg/mL BD Pharmingen respectively). Compound at the desired concentration is then added to the wells and the plate left for 3 days under normal tissue culture conditions. Supernatants are harvested and IL-2 and IFN gamma release determined by Sandwich ELISA (Duo-set, R&D System). The IC50 is determined from the dose response curve.
# PBMCs [2] = experiment: IFN gamma release in CD3/CD28 stimulated PBMC cells (assay c); assay type: cell-based; settings: Homo sapiens, read-out: IC50 Values for Inhibition of Cytokine Release, PBMCs IFNγ
# Method: as §1
# PBMCs [3] = experiment: LPS-induced IL-8 release in PBMC cells (assay b); assay type: cell-based, human; settings: Homo sapiens, PBMC; LPS-stimulated PBMCs; read-out: IC50 Values for Inhibition of Cytokine Release, PBMCs IL-8
# Summary of the method: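 Cytokines (TNFα, IL-8) in supernatants were quantified by sandwich ELISA after a 24 h challenge with 1 ng/mL E. coli LPS at 37° C, 5% CO2. Healthy-donor PBMCs had been exposed to compound for 2 h beforehand. IC50 values were fitted from the concentration-response curves.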
# PBMCs [4] = experiment: Cell mitosis assay in PBMCs (assay g); assay type: cell-based; settings: Homo sapiens, PBMC, test compound 5 μg/mL
# Method: Peripheral blood mononucleocytes (PBMCs) from healthy subjects are separated from whole blood (Quintiles, London, UK) using a density gradient (Histopaque®-1077, Sigma-Aldrich, Poole, UK). The PBMCs (3 million cells per sample) are subsequently treated with 2% PHA (phytohaemagglutinin, Sigma-Aldrich, Poole, UK) for 48 hr, followed by a 20 hr exposure to varying concentrations of test compounds. At 2 hr before collection, PBMCs are treated with demecolcine (0.1 μg/mL; Invitrogen, Paisley, UK) to arrest cells in metaphase. To observe mitotic cells, PBMCs are permeabilised and fixed by adding Intraprep (50 μL; Beckman Coulter, France), and stained with anti-phospho-histone 3 (0.26 ng/L; #9701; Cell Signalling, Danvers, Mass.) and propidium iodide (1 mg/mL; Sigma-Aldrich, Poole, UK) as previously described (Muehlbauer P. A. and Schuler M. J., Mutation Research, 2003, 537:117-130). Fluorescence is observed using an ATTUNE flow cytometer (Invitrogen, Paisley, UK), gating for lymphocytes. The percentage inhibition of mitosis is calculated for each treatment relative to vehicle (0.5% DMSO) treatment.
# c-Src = c-Src (Homo sapiens (Human), UniProt P12931); experiment: c-Src enzyme inhibition (FRET, Z-LYTE); assay type: biochemical
# Chain of c-Src (P12931 whole entry, looked up): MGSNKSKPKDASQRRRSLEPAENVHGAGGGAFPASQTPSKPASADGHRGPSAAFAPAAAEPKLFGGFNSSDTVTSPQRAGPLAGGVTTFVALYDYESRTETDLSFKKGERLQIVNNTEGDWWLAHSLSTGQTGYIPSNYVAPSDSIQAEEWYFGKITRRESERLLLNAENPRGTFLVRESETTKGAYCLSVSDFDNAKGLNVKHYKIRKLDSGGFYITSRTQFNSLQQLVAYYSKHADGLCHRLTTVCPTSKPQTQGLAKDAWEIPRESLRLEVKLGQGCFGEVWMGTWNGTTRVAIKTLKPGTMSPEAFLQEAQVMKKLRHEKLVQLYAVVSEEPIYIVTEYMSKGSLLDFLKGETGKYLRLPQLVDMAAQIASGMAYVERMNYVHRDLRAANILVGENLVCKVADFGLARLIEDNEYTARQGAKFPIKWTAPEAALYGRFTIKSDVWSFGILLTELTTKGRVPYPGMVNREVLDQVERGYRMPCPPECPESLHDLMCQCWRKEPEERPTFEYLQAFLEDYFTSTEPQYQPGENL
# Summary of the method: (§2)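 Each kinase is exposed to test compound for 2 hr at RT before substrate and ATP (pre-mix levels: c-Src 800 μM, Syk 60 μM) start a 1 hr reaction. A 1 hr protease step removes signal from non-phosphorylated peptide; inhibition against uninhibited control yields IC50.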
# Syk = Syk (Homo sapiens (Human), UniProt P43405); experiment: Syk enzyme inhibition (FRET, Z-LYTE); assay type: biochemical
# Summary of the method: as §2
# GSK 3α = GSK 3α (Homo sapiens (Human), UniProt P49840); experiment: GSK 3α enzyme inhibition (FRET, Z-LYTE, Method 2); assay type: biochemical; settings: read-out: IC50 Values for Enzyme Inhibition, GSK3α
# Chain of GSK 3α (P49840 whole entry): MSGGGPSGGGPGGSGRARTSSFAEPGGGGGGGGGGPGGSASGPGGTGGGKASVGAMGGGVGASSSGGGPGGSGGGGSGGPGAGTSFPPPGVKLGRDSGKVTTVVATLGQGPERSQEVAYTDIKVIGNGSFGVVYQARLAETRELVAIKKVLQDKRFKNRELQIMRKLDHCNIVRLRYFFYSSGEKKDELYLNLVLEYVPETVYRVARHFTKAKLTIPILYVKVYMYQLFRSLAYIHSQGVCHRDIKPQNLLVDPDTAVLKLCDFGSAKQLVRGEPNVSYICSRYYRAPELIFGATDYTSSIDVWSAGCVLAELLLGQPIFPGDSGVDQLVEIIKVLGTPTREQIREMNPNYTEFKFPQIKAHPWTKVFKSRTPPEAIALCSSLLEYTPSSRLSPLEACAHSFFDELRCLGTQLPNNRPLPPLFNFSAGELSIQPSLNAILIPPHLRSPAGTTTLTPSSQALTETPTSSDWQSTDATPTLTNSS
# Summary of the method: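 Phosphorylation of a dual-labelled synthetic peptide by human GSK3α is read as a coumarin/fluorescein ratio after protease development. Compound stocks run 4 to 0.004 μg/mL, and ATP stock is 40 μM.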
# d-U937 cells = experiment: Accumulation of β catenin in d-U937 cells (assay m); assay type: cell-based, human; settings: percentage relative to Reference Compound at 1 μg/mL
# Summary of the method: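 Read-out: colourimetric cell-based immunoassay for endogenous β-catenin (OD450 minus 655 reference), normalised to crystal violet absorbance at 595 nm. Test compound or vehicle was applied for 18 hr to U937 monocytes first differentiated with PMA (100 ng/mL) for 48–72 hr.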
# [5] = biological target: p38 MAPKα isoform (MAPK14) (Homo sapiens (Human), UniProt Q16539); experiment: p38 MAPKα enzyme inhibition (FRET, Z-LYTE, Method 2); assay type: biochemical
# Chain of p38 MAPKα isoform (MAPK14) (Q16539 whole entry, canonical isoform): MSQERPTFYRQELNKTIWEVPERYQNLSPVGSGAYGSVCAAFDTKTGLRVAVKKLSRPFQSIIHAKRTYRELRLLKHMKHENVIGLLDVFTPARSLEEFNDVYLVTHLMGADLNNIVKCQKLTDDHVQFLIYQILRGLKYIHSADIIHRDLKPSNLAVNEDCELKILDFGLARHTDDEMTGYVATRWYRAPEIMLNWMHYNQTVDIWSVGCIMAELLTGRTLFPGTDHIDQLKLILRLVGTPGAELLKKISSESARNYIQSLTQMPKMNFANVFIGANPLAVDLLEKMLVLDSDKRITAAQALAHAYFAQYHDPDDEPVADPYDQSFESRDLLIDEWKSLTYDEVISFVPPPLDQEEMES
# Summary of the method: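 Z-LYTE FRET: p38 MAPKα (80 ng/mL for Method 1, 200 ng/mL for Method 2, pre-dilution) preincubated 2 hr RT with compound (4–0.004 μg/mL solutions), activity read via MAPKAP-K2 phosphorylation after 1 hr RT and 1 hr protease development. Coumarin/fluorescein ratio gives phosphorylation; % inhibition versus uninhibited control, IC50 from concentration-response curve.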
Structure (SMILES),IC50 (c-Src) [nM],IC50 (Syk) [nM],IC50 (GSK 3α) [nM],IC50 [5] [nM],IC50 (PBMCs [1]) [nM],IC50 (PBMCs [2]) [nM],IC50 (PBMCs [3]) [nM],inhibition at 5 µg/mL (PBMCs [4]) [%],% β-catenin induction (d-U937 cells; test compound 1 μg/mL) [%],% β-catenin induction (d-U937 cells; test compound 5 μg/mL) [%],% β-catenin induction (d-U937 cells; test compound 10 μg/mL) [%]
"COCCOCCOCCNC(=O)c1cc(Nc2cc(Oc3ccc(NC(=O)Nc4cc(C(C)(C)C)cc(S(C)(=O)=O)c4OC)c4ccccc34)ccn2)cc(OC)c1 [38(ab), 3-((4-((4-(3-(5-(tert-Butyl)-2-methoxy-3-(methylsulfonyl)phenyl)ureido)naphthalen-1-yl)oxy)pyridin-2-yl)amino)-5-methoxy-N-(2-(2-(2-methoxyethoxy)ethoxy)ethyl)benzamide]",61,> 1200,4830,50,317,10.9,1.4,30.7,,,
"COc1cc(Nc2cc(Oc3ccc(NC(=O)Nc4cc(C(C)(C)C)cc(CC(N)=O)c4OC)c4ccccc34)ccn2)cc(S(=O)(=O)C2CC2)c1 [38(ad), 2-(5-(tert-Butyl)-3-(3-(4-((2-((3-(cyclopropylsulfonyl)-5-methoxyphenyl)amino)pyridin-4-yl)oxy)naphthalen-1-yl)ureido)-2-methoxyphenyl)acetamide]",155,> 1380,11000,87,214,10.9,2.2,14.5,,,
"COc1cc(C#N)cc(Nc2cc(Oc3ccc(NC(=O)Nc4cc(C(C)(C)C)cc(CC(N)=O)c4OC)c4ccccc34)ccn2)c1 [38(ah), 2-(5-(tert-Butyl)-3-(3-(4-((2-((3-cyano-5-methoxyphenyl)amino)pyridin-4-yl)oxy)naphthalen-1-yl)ureido)-2-methoxyphenyl)acetamide]",311,> 1550,13900,619,350,10.6,2.3,6.7,,,
"COc1cc(Nc2cc(Oc3ccc(NC(=O)Nc4cc(C(C)(C)C)cc(CC(N)=O)c4OC)c4ccccc34)ccn2)cc(S(=O)(=O)N(C)C)c1 [38(aj), 2-(5-(tert-Butyl)-3-(3-(4-((2-((3-(N,N-dimethylsulfamoyl)-5-methoxyphenyl)amino)pyridin-4-yl)oxy)naphthalen-1-yl)ureido)-2-methoxyphenyl)acetamide]",220,> 1380,> 13200,295,340,9.6,2.1,-1,,,
"COc1cc(Nc2cc(Oc3ccc(NC(=O)Nc4cc(C(C)(C)C)cc(S(C)(=O)=O)c4OC)c4ccccc34)ccn2)cc(C(=O)NCCN2CC[S+]([O-])CC2)c1 [38(an), 3-((4-((4-(3-(5-(tert-Butyl)-2-methoxy-3-(methylsulfonyl)phenyl)ureido)naphthalen-1-yl)oxy)pyridin-2-yl)amino)-5-methoxy-N-(2-(1-oxidothiomorpholino)ethyl)benzamide]",24,99,3600,48,81.8,8.2,3.8,30.1,,,
"COc1c(NC(=O)Nc2ccc(Oc3ccnc(NCc4ccccc4)n3)c3ccccc23)cc(C(C)(C)C)cc1P(C)(C)=O [38(g), 1-(4-((2-(Benzylamino)pyrimidin-4-yl)oxy)naphthalen-1-yl)-3-(5-(tert-butyl)-3-(dimethylphosphoryl)-2-methoxyphenyl)urea]",,,2370,9,1600,22.5,3.3,28.8,4.5,24.5,38.0
"COc1c(NC(=O)Nc2ccc(Oc3ccnc(Nc4cc(C#N)cc(OCCCN5CCOCC5)c4)c3)c3ccccc23)cc(C(C)(C)C)cc1[S+](C)[O-] (centres unmarked) [79(e), 1-(5-tert-Butyl-2-methoxy-3-methylsulfinyl-phenyl)-3-[4-[[2-[3-cyano-5-(3-morpholinopropoxy)anilino]-4-pyridyl]oxy]-1-naphthyl]urea]",81,> 1190,,269,51.9,6.9,4.1,72.4,,,
"COc1cc(Nc2cc(Oc3ccc(NC(=O)Nc4cc(C(C)(C)C)cc(CC(N)=O)c4OC)c4ccccc34)ccn2)ccc1C(=O)NCCN1CCOCC1 [Example 70, 4-((4-((4-(3-(3-(2-Amino-2-oxoethyl)-5-(tert-butyl)-2-methoxyphenyl)ureido)naphthalen-1-yl)oxy)pyridin-2-yl)amino)-2-methoxy-N-(2-morpholinoethyl)benzamide]",,,2280,28,98.1,11.1,2.3,62.8,,,

# Further lines, with some results ahead:
IC50 (c-Src) [nM],IC50 (Syk) [nM],IC50 (GSK 3α) [nM],IC50 [5] [nM],Structure (SMILES),IC50 (PBMCs [1]) [nM],IC50 (PBMCs [2]) [nM],IC50 (PBMCs [3]) [nM],inhibition at 5 µg/mL (PBMCs [4]) [%],% β-catenin induction (d-U937 cells; test compound 1 μg/mL) [%],% β-catenin induction (d-U937 cells; test compound 5 μg/mL) [%],% β-catenin induction (d-U937 cells; test compound 10 μg/mL) [%]
46,114,192,,"COc1c(NC(=O)Nc2ccc(Oc3ccnc(Nc4cnccn4)c3)c3ccccc23)cc(C(C)(C)C)cc1P(C)(C)=O [15(aa), 1-(5-(tert-butyl)-3-(dimethylphosphoryl)-2-methoxyphenyl)-3-(4-((2-(pyrazin-2-ylamino)pyridin-4-yl)oxy)naphthalen-1-yl)urea]",58.6,14.7,0.8,98.1,50.5,58.5,49.5
15,393,867,21,"COCCOCCOCCNC(=O)c1cc(Nc2cc(Oc3ccc(NC(=O)Nc4cc(C(C)(C)C)cc(CNC(C)=O)c4OC)c4ccccc34)ccn2)cc(OC)c1 [38(y), 3-((4-((4-(3-(3-(Acetamidomethyl)-5-(tert-butyl)-2-methoxyphenyl)ureido)naphthalen-1-yl)oxy)pyridin-2-yl)amino)-5-methoxy-N-(2-(2-(2-methoxyethoxy)ethoxy)ethyl)benzamide]",28.3,7.9,0.5,65.7,,,
,,1610,211,"COc1cc(Nc2cc(Oc3ccc(NC(=O)Nc4cc(C(C)(C)C)cc(C(=O)NCCN5CCOCC5)c4OC)c4ccccc34)ccn2)cc(C(N)=O)c1 [Example 61, 5-(tert-Butyl)-3-(3-(4-((2-((3-carbamoyl-5-methoxyphenyl)amino)pyridin-4-yl)oxy)naphthalen-1-yl)ureido)-2-methoxy-N-(2-morpholinoethyl)benzamide]",7.8,1.6,1.9,68.7,,,
